{
  "source": "patent US10232021B2",
  "about": "“Calcitonin mimetics for treating diseases and disorders” (KEYBIOSCIENCE AG, priority 2013, dated 2019)",
  "key": {"Amylin Receptor (AMY-R) [1]": {"target": "T1, Amylin Receptor (AMY-R) (Homo sapiens, UniProt P30988)", "T1 construct": "host or cells: CHO-K1", "T1 sequence (P30988 25-474)": "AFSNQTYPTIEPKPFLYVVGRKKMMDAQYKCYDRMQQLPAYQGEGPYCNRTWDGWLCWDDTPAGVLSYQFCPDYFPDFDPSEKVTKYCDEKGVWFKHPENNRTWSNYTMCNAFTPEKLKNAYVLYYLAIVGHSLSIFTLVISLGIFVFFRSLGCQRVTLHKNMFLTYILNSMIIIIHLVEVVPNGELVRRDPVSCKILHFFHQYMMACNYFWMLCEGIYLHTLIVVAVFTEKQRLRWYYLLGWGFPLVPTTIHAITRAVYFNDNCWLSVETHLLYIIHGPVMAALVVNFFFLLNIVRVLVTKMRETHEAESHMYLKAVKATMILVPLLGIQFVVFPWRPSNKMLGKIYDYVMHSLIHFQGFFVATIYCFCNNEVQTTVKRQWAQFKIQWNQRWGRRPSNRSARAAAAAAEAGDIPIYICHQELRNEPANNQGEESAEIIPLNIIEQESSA", "T1 sequence (O60896 24-148 partner)": "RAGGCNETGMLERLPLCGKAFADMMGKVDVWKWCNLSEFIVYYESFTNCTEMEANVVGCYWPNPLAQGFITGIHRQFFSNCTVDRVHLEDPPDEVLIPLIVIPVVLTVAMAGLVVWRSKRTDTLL", "assay": "PathHunter β-arrestin assay on the amylin receptor", "type": "cell-based", "conditions": "CHO-K1 CALCR+RAMP3 cells", "protocol": "(§1) The following cell lines expressing the calcitonin, amylin and CGRP receptors were purchased and cultured according to the manufacturer's instructions. • 1. Calcitonin Receptor (CTR): U20S-CALCR from DiscoveRx (Cat. No.: 93-0566C3). • 2. Amylin Receptor (AMY-R): CHO-K1 CALCR+RAMP3 from DiscoveRx (Cat. No.: 93-0268C2). • 3. CGRP Receptor (CGRP-R): CHO-K1 CALCRL+RAMP1 from DiscoveRx (Cat. No.: 93-0269C2).\nIn independent bioassays, CTR, AMY-R and CGRP-R cells were treated with for the indicated timepoints with increasing doses of sCT, UGP-302/KBP-042 or the KBPs identified in Table 3 (0, 0.001, 0.01, 0.1, 1, 10, and 100 nM). […]\nIn this system, the GPCR is fused in frame with the small enzyme fragment ProLink™ and co-expressed in cells stably expressing a fusion protein of β-Arrestin and the larger, N-terminal deletion mutant of β-gal (called enzyme acceptor or EA). […] This interaction leads to an increase in enzyme activity that can be measured using chemiluminescent PathHunter® Detection Reagents.\nThe assay was performed in white 384 well plates (Greiner Bio-One, 784080). […] To quantify the GPCR-mediated β-arrestin recruitment the Pathhunter™ Detection Kit (93-0001, DiscoverX) was used and assay performed accordingly to the manufacturer's instructions."}, "[2]": {"assay": "Three-week treatment of ZDF rats: fasting plasma glucose and HbA1c", "type": "in vivo, male ZDF (fa/fa) rats", "conditions": "5 μg/kg/day subcutaneously once daily, 3 weeks", "protocol": "To assess the effects of the peptides in relation to regulation of blood glucose levels, male ZDF rats, which are the gold standard model of Type 2 Diabetes were treated for 3 weeks with the 3 most promising KBPs (023, 056 and 088) and an active comparator (UGP302/KBP-042). Male ZDF (fa/fa) rats were obtained at the age of 7 weeks from Charles River Laboratories (Kisslegg, Deutschland). All animals were housed at the animal facility at Nordic Bioscience with a constant temperature (21-23° C.) and relative humidity (55-65%) on a 12 h light/dark cycle with free access to Purina 5008 rat chow (Brogaarden, Lynge, Denmark) and tap water. At the age of 8 weeks, the animals were randomized into five groups of 8 rats each based upon fasting blood glucose and body weight (Vehicle (saline), UGP302/KBP-042 5 μg/kg/day, KBP-023 5 μg/kg/day, KBP-056 5 μg/kg/day and KBP-088 5 μg/kg/day) and dosing was done subcutaneously once daily. The animals were treated for a total of 3 weeks to assess the effect of the peptides on fasting blood glucose. Blood glucose was monitored using the Accu-Check® Avia monitoring system (Roche Diagnostics, Rotkreuz, Switzerland) and HbA1c levels by the DCA Vantage™ Analyzer (Siemens Healthcare Diagnostics, Deerfield, Ill.)."}, "Amylin Receptor (AMY-R) [3]": {"target": "T1, Amylin Receptor (AMY-R)", "assay": "Competitive ligand binding against 125I-sCT on AMY-R cells", "conditions": "CHO-K1 CALCR+RAMP3 cells; 0.1 nM 125I-sCT; 60 min, 37° C.", "excerpt": "as §1\n(§2) Corresponding to the beta-arrestin induction experiments, we performed competitive ligand binding experiments using the cells expressing the CTR and the AMY-R. In studying ligand binding on cells, 15.000 CTR or AMY-R cells were seeded in 96-well plate and cells were treated with 0.1 nM ^125I-conjugated sCT with or without the presence of unlabelled KBP in increasing doses for 60 min at 37° C. After incubation the supernatant was removed and cells were washed twice in 200 μl PBS. The cells were lysed using RIPA‡ buffer (30 mM M NaCl, 50 mM Tris-HCl, 5 mM EDTA, 1% Deoxycholic acid, […], Protease inhibitor tablet mini (1 tablet:10 ml)) and lysates as well were collected for measurement on a γ-counter."}, "[4]": {"assay": "Single-dose food intake in obese High-Fat-Diet rats", "type": "in vivo", "conditions": "single subcutaneous dose 1.25, 2.5, 5 μg/kg; obese rats fasted overnight", "protocol": "Rats were fed a High-Fat-Diet for 14 weeks prior to the experiment to induce obesity.\nFurther similar studies were undertaken over different time periods and with different peptides and the results are seen in FIG. 10 and FIGS. 11A-11B. The ability of KBP089 to suppress food intake over 72 hours was compared to that of KBP042 as control and the results are seen in FIG. 10."}, "[5]": {"target": "T2, Calcitonin Receptor (CTR) (Homo sapiens, UniProt P30988)", "T2 construct": "host or cells: U2OS", "T2 sequence (P30988 25-474)": "T1 sequence (P30988 25-474)", "assay": "Competitive ligand binding against 125I-sCT on CTR cells", "conditions": "U20S-CALCR cells; 0.1 nM 125I-sCT; 60 min, 37° C.", "excerpt": "as §1, §2"}},
  "note": "Bridges are numbered along the chain shown (N, C = ends).",
  "data": [
    {"substance": "KBP-088: SEQ ID NO: 12; AcCSNLSTCMLGRLSQELHRLQTFPKTDVGANAP-NH2, Cys1-Cys7 disulphide bridge (Ac-CSNLSTCMLGRLSQELHRLQTFPKTDVGANAP-NH2; disulfide 1-7; SMILES CSCC[C@H](NC(=O)[C@@H]1CSSC[C@H](NC(C)=O)C(=O)N[C@@H](CO)C(=O)N[C@@H](CC(N)=O)C(=O)N[C@@H](CC(C)C)C(=O)N[C@@H](CO)C(=O)N[C@@H]([C@@H](C)O)C(=O)N1)C(=O)N[C@@H](CC(C)C)C(=O)NCC(=O)N[C@@H](CCCNC(=N)N)C(=O)N[C@@H](CC(C)C)C(=O)N[C@@H](CO)C(=O)N[C@@H](CCC(N)=O)C(=O)N[C@@H](CCC(=O)O)C(=O)N[C@@H](CC(C)C)C(=O)N[C@@H](Cc1c[nH]cn1)C(=O)N[C@@H](CCCNC(=N)N)C(=O)N[C@@H](CC(C)C)C(=O)N[C@@H](CCC(N)=O)C(=O)N[C@H](C(=O)N[C@@H](Cc1ccccc1)C(=O)N1CCC[C@H]1C(=O)N[C@@H](CCCCN)C(=O)N[C@H](C(=O)N[C@@H](CC(=O)O)C(=O)N[C@H](C(=O)NCC(=O)N[C@@H](C)C(=O)N[C@@H](CC(N)=O)C(=O)N[C@@H](C)C(=O)N1CCC[C@H]1C(N)=O)C(C)C)[C@@H](C)O)[C@@H](C)O)", "values": [
      {"measurement": "activation of the AMY-R (β-arrestin dose-response)", "setting": "Amylin Receptor (AMY-R) [1]", "value": "more potent that the classical AMY-R agonist sCT"},
      {"measurement": "HbA1c", "setting": "[2]", "value": "highly active"},
      {"measurement": "fasting plasma glucose (FPG)", "setting": "[2]", "value": "highly active"},
      {"measurement": "competitive binding affinity on the AMY-R", "setting": "Amylin Receptor (AMY-R) [3]", "value": "better than the other ligands, particularly on the AMY-R"},
      {"measurement": "food intake, 0-4 hours", "setting": "[4]", "value": "led to a reduction in food intake"},
      {"measurement": "food intake, 4-24 hours", "setting": "[4]", "value": "the effect was maintained to 24 hours"},
      {"measurement": "food intake, 24-48 hours", "setting": "[4]", "value": "only KBP-089 led to a reduction in food intake"},
      {"measurement": "competitive binding affinity on the CTR", "setting": "[5]", "value": "better than the other ligands"}
    ]}
  ]
}
